The conditions of series [1]: mouse, in vivo.
Procedure: Dose Range Finding Studies
(§2) All the procedures related to animal handling, care, and treatment in this study were performed according to the guidelines approved by the Institutional Animal Care and Use Committee of Pharmaron, Beijing, China and following the guidance of the Association for Assessment and Accreditation of Laboratory Animal Care.
(§3) Six to eight-week-old NOD SCID mice were purchased from Beijing HFK Bioscience Co., Ltd. Mice were housed in polycarbonate cages maintained at a temperature of (22+/−3° C.) and relative humidity of 40-70%. Animals had free access to sterile drinking water and irradiation sterilized dry granule food throughout the study.
The test system of the next series is KMS11 tumors. Type of series: in vivo. On the procedure:
NOD SCID mice received 1×10^7 cells (0.1 mL cell suspension) subcutaneously in the right flank. […] The maximal treatment length was 28 days. Tumor volumes (twice weekly) and body weight (daily) were recorded throughout the experiment. On day 7 or day 28 during the studies, mice were sampled in a pre-specified fashion. Sampling included nonterminal retro-orbital bleeds and full volume blood collection via terminal cardiac puncture under CO2 anesthesia. Blood samples were processed for plasma, with K2-EDTA as anticoagulant, and PBMCs isolated. The samples were frozen at −80° C. and stored before analysis. Tumors were harvested from specified mice under RNase-free conditions and snap frozen in liquid nitrogen. Bone marrow was flushed from the femur using 1×PBS, strained over a 40 um nylon strainer, and flash frozen. Histones were extracted from tumors, bone marrow, and PBMCs as previously described.
(§1) Fluorescent-Based ELISA Assay (Fluroimmunoassay (FIA) Detection of Anti-Histone H3 Tri-Methyl K36)
Histones were prepared in coating buffer and added directly to high-binding 96 well plates. Plates were left at 4° C. overnight to allow histones to adhere. […] Plates were imaged on the Odyssey Imaging System (LI-COR Biosciences) using both 700 nm and 800 nm channels. The average of the ratio values for each test sample was calculated by dividing the 800 nm (H3K36me3) value by the 700 nm value (total H3) and used to determine the percent of H3K36me3 from vehicle.

The next series has as its system KMS-34 cells. Briefly: In vitro long-term proliferation (LTP) 14-day assay, KMS-34. The format is cell-based, human. Particulars: FIG. 2C, comparison of enantiomers.
The test system of a further series is H3K36me3 / H3K36me2. The series is described as follows: Western blot of H3K36 methyl marks in KMS-34 cells. Type of series: cell-based, human. Particulars: KMS-34, after 14 days. (Immunoblotting shows a protein as a band on a membrane.)
Another series concerns MM.1S tumors. The series is described as follows: MM.1S non-t(4;14) multiple myeloma xenograft. Type of series: in vivo, CB17 SCID mice. On the procedure: CB17 SCID mice were inoculated subcutaneously in the right flank with MM.1S tumor cells (5×10^6) in 0.2 mL of PBS mixed with Matrigel (50:50). After 18 days, mice bearing 100 to 150 mm^3 tumors were sorted into treatment groups with mean tumor volumes of 103 mm^3 (n=10 mice per group). […] The maximal treatment length was 23 days. Tumor volumes and body weight were recorded twice weekly throughout the experiment. On day 18 or day 41 during the studies, mice were sampled in a pre-specified fashion. Sampling included nonterminal retro-orbital bleeds and full volume blood collection via terminal cardiac puncture under CO2 anesthesia. Blood samples were processed for plasma, with K2-EDTA as anticoagulant, and PBMCs isolated. The samples were frozen at −80° C. and stored before analysis. Tumors were harvested from specified mice under RNase-free conditions and snap frozen in liquid nitrogen. Bone marrow was flushed from the femur using 1×PBS, strained over a 40 um nylon strainer, and flash frozen.
as §1
Histones were prepared in coating buffer and added directly to high-binding 96 well plates. […] The average of the ratio values for each test sample was calculated by dividing the 800 nm (H3K36me3) value by the 700 nm value (total H3) and used to determine the percent of H3K36me3 from vehicle.

The subject of a further series is KMS11 TKO cells. The series is described as follows: In vitro long-term proliferation (LTP) 14-day assay, KMS11 TKO. Type of series: cell-based, human. The note with it: KMS11 TKO (non-translocated WHSC1 allele only), 14 days. The text has this:
In Vitro Long-Term Proliferation (LTP) Assay

Series [2] can be described thus: 7-day dose range finding study in mice.
Procedure: Dose Range Finding Studies
as §2, §3

Entries after “also recorded” stand apart in the source; their conditions may differ.

Procedure for H3K36me3 / H3K36me2: Cells were pelleted, washed with ice-cold 1×PBS, resuspended in ice-cold NP40 buffer, and incubated on ice for 30 minutes before sonication (Amplitude 30%/5 sec×1). […] Blots were imaged using the Odyssey Imaging System (LICOR Biosciences).

Take `CC(=O)N1CCN([C@H]2CCC[C@@H](NC(=O)c3cc4c(F)ccc(C)c4[nH]3)C2)CC1` [Cpd. No. 15, N-((1R,3S)-3-(4-acetylpiperazin-1-yl)cyclohexyl)-4-fluoro-7-methyl-1H-indole-2-carboxamide]: the tolerability result in series [1] is “very well tolerated”. The “effect on body weight” value in the series with KMS11 tumors (31.25 mg/kg and 62.5 mg/kg, 28 days BID) was “minimal effects on body weight”. The “H3K36me3 in histones from tumor (fluorescent-based ELISA)” value in the series on KMS11 tumors (day 28, all doses) is “complete reduction”. For the same compound, in the series with KMS11 tumors (oral, 28 days, dose-dependent), the tumor response entry is listed as “robust tumor growth regression”. The proliferation defects result in the series with KMS-34 cells was “proliferation defects”. Further, in the series with H3K36me3 / H3K36me2, the H3K36me2 level entry is reported as “unaffected; also recorded: remained unaltered” and the H3K36me3 level result is given as “dose-dependent decrease; also recorded: reduced”. Further, in the series with MM.1S tumors (BID oral dosing), the “H3K36me3 in MM.1S tumor samples (fluorescent-based ELISA)” value was “reduction; also recorded: dose dependent decrease”. Moreover, the body weight entry in the series on MM.1S tumors (all doses, 23 continuous days BID) is on record as “minimal body weight loss; also recorded: minimal changes in body weight”. In addition, the proliferation effect result in the series with KMS11 TKO cells is reported as “no proliferation effects”. Besides, the body weight entry in series [2] (62.5 and 125 mg/kg BID, 7 days, versus vehicle control) is reported as “No body weight loss”. The “H3K36me3 levels in naïve bone marrow” value in series [2] (oral dosing, 7-day study) is given as “substantial reduction”.
